Experiments:
[1] = molecular target: T1, Progesterone receptor (Oryctolagus cuniculus, UniProt P06186); test: Receptor binding affinity, progesterone receptor (competitive binding, 3H-ORG 2058); conditions: Progesterone = 100%; uterus cytosol of estradiol-primed rabbit
T1 construct: Uterus cytosol of the estradiol-primed rabbit; from tissue; host or cells: uterus cytosol of estradiol-primed rabbit
T1 sequence (P06186 1-930): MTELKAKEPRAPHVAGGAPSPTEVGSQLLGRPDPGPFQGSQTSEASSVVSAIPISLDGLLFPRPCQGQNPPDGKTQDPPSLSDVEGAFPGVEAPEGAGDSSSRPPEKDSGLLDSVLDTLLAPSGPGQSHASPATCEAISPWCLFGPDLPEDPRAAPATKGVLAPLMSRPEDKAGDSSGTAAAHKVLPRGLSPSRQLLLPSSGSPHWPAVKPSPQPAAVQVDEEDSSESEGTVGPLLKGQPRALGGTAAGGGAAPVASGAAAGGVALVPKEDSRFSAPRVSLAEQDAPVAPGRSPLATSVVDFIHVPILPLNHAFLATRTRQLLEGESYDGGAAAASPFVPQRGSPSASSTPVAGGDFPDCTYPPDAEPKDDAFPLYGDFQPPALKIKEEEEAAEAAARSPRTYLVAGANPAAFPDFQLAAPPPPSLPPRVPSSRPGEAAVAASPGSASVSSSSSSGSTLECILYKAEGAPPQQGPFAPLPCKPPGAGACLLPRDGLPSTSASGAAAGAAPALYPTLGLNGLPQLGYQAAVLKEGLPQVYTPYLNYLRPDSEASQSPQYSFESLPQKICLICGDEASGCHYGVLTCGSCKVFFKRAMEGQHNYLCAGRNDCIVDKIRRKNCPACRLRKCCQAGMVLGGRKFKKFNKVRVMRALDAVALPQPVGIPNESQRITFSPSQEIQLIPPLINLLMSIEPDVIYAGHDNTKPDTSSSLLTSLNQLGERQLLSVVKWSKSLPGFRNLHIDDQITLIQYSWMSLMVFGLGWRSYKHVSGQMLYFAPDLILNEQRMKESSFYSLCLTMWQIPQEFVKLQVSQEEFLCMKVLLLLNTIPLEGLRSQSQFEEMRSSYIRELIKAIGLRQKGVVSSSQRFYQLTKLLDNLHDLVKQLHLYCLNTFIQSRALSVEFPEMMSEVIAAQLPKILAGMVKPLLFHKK
Experimental: (§1) The receptor binding affinity was determined by competitive binding of a specifically binding ^3H-labeled hormone (tracer) and the compound to be tested on receptors in the cytosol from animal target organs. In this case, receptor saturation and reaction equilibrium were sought.
(§2) The tracers and increasing concentrations of the compound to be tested (competitor) were co-incubated with the receptor-containing cytosol fraction at 0-4° C. over 18 hours. After separation of the unbonded tracer with carbon-dextran suspension, the receptor-bonded tracer portion was measured for each concentration, and the IC50 was determined from the concentration sequence. As a quotient of the IC50 values of the reference substance and the compound to be tested (×100%), the relative molar binding affinity (RBA) was calculated (RBA of the reference substance=100%).
Uterus cytosol of the estradiol-primed rabbit; homogenized in TED buffer (20 mmol of Tris/HCl, pH 7.4; 1 mmol of ethylenediamine tetraacetate, 2 mmol of dithiothreitol) with 250 mmol of saccharose; stored at −30° C. Tracer: ^3H-ORG 2058, 5 nmol; reference substance: progesterone.

[2] = test system: adult female rats; test: Nidation-inhibiting test (antifertile effects in the perinidation phase); format: in vivo; conditions: day 5-7 of pregnancy, rat
Experimental: The determination of the progesterone-antagonistic activities was carried out on adult female rats in the nidation-inhibiting test. The principle of the test is described as follows: progesterone preserves pregnancy in all stages. An early-abortive action can accordingly be expected from competitive progesterone antagonists. Female rats (Schoe strain: WIST Tierzucht GmbH Schönwalde) with a weight of 180-200 g were subjected daily to a cycle control and paired up in proestrus. The beginning of pregnancy was determined by detecting sperm in the vaginal smear on the same day (=day 1 of pregnancy=d1 p.c.). From the 5th-7th day of pregnancy, the test substances were injected subcutaneously daily. On the 9th day, vaginal smears were taken, then the animals were autopsied and the uteri were prepared. The degeneration of implants and pathological, hemorrhagic and otherwise abnormal nidation sites were counted as abortions and are shown in Table 2.

[3] = molecular target: T2, Androgen receptor (Rattus norvegicus, UniProt P15207); test: Receptor binding affinity, androgen receptor (competitive binding, 3H-metribolone); conditions: prostate cytosol of castrated rat; for AR relative molar binding affinity (RBA) a) against RU 1881: reference RU 1881 (metribolone); for AR relative molar binding affinity (RBA) b) against dihydrotestosterone (DHT): reference dihydrotestosterone
T2 construct: Prostate cytosol of the castrated rat; from tissue; host or cells: prostate cytosol of castrated rat
T2 sequence (P15207 1-902): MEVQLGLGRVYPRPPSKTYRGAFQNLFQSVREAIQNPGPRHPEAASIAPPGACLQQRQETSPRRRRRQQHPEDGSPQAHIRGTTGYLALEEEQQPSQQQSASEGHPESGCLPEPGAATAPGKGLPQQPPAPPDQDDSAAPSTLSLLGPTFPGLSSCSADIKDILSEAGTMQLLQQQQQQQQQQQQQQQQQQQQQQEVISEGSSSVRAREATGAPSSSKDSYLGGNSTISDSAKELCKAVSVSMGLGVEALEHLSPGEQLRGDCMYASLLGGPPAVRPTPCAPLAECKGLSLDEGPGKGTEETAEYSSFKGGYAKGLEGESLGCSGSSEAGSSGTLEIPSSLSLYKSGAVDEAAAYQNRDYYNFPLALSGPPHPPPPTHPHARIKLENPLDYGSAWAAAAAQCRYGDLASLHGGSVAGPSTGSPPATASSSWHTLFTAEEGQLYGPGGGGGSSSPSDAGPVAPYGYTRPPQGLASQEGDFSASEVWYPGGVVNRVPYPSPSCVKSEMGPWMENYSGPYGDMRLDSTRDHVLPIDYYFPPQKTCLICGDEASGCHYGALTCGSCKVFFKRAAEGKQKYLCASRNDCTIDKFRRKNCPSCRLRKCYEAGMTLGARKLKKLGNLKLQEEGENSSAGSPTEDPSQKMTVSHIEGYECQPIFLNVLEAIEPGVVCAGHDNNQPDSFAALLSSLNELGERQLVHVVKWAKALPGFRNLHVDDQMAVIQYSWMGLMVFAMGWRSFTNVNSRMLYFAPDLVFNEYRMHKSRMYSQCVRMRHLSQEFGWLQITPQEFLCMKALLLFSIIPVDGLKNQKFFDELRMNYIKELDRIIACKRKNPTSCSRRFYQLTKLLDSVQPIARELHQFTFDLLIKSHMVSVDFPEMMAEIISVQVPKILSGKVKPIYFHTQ
Experimental: as §1, §2
Prostate cytosol of the castrated rat; prostates stored at −30° C.; buffer: TED with 10% glycerol as well as 2 μmol of triamcinolone acetonide. Tracer: ^3H-metribolone 4 nmol; reference substances: metribolone (RU 1881) or 5α-dihydrotestosterone.

[4] = molecular target: T3, Glucocorticoid receptor (Rattus norvegicus, UniProt P06536); test: Receptor binding affinity, glucocorticoid receptor (competitive binding, 3H-dexamethasone); conditions: Dexamethasone = 100%; thymus cytosol of adrenalectomized rat
T3 construct: Thymus cytosol of the adrenalectomized rat; from tissue; host or cells: thymus cytosol of adrenalectomized rat
T3 sequence (P06536 1-795): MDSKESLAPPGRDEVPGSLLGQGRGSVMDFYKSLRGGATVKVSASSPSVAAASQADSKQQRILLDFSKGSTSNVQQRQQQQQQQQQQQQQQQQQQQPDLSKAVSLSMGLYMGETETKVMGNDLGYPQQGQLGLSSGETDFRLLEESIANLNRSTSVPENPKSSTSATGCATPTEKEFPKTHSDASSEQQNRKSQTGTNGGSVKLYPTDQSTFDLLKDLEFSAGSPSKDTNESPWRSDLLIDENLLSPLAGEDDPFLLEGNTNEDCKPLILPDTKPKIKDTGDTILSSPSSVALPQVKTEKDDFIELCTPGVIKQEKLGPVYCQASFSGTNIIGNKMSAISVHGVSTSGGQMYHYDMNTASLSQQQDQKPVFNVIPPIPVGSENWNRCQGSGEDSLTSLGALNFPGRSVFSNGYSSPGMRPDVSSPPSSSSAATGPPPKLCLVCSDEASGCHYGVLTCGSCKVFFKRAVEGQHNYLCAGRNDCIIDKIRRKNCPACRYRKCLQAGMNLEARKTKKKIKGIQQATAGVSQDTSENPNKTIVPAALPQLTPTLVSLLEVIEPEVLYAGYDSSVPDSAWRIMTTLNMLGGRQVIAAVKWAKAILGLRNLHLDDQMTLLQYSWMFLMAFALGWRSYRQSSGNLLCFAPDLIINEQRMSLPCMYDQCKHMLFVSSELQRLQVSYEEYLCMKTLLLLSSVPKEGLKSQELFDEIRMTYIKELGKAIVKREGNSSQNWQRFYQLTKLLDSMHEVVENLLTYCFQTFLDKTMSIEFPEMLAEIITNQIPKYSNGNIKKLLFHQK
Experimental: as §1, §2
Thymus cytosol of the adrenalectomized rat, thymi stored at −30° C.; buffer: TED. Tracer: ^3H-Dexamethasone, 20 nmol; reference substance: dexamethasone.

Row | Structure (SMILES) | PR relative molar binding affinity (RBA) [1] | Rate of Animals with Complete Inhibition of Nidation ([2]; 1.0 mg/animal/day s.c.) | AR relative molar binding affinity (RBA) a) against RU 1881 [3] | AR relative molar binding affinity (RBA) b) against dihydrotestosterone (DHT) [3] | GR relative molar binding affinity (RBA) [4] | Rate of Animals with Complete Inhibition of Nidation ([2]; 0.3 mg/animal/day s.c.) | Rate of Animals with Complete Inhibition of Nidation ([2]; 3.0 mg/animal/day s.c.)
1 | CO[C@H]1CC[C@H]2[C@@H]3CCC4=CC(=O)CCC4=C3[C@@H](c3ccc(/C=N/O)cc3)C[C@]12C [Example 5, 4-(17β-Methoxy-3-oxoestra-4,9-dien-11β-yl)benzaldehyde-1(E)-oxime] | 159% | 0/4 | a) 21% | b) 32% | 14% | – | –
2 | CC1(O)CCC2C3CCC4=C(Br)C(=O)CCC4=C3C(c3ccc(C=NO)cc3)CC21C (stereo not drawn) [Example 6, 4-(4′-Bromo-17β-hydroxy-17α-methyl-3-oxoestra-4,9-dien-11β-yl)benzaldehyde-1(E)-oxime] | 106% | 5/5 | a) 14% | b) 22% | 0.76% | – | –
3 | C[C@]12C[C@H](c3ccc(/C=N/O)cc3)C3=C4CCC(=O)C=C4CC[C@H]3[C@@H]1CC[C@@H]2OC(=O)c1ccccc1 [Example 16] | 8% | – | a) 1.4% | b) 2.2% | 3% | – | –
4 | CC12CC(c3ccc(C=NO)cc3)C3=C4CCC(=O)C=C4CCC3C1CCC2OCc1ccccc1 (stereo not drawn) [Example 17, 4-(17β-Benzyloxy-3-oxoestra-4,9-dien-11β-yl)benzaldehyde-1(E)-oxime] | 31% | – | a) 2% | b) 3% | 8% | – | –
5 | CC12CC(c3ccc(C=NO)cc3)C3=C4CCC(=O)C(Br)=C4CCC3C1CCC2O (stereo not drawn) [Example 19, 4-(4′-Bromo-17β-hydroxy-3-oxoestra-4,9-dien-11β-yl)benzaldehyde-1(E)-oxime] | 51% | – | a) 9% | b) 16% | 0.5% | – | –
6 | CCNC(=O)O/N=C/c1ccc([C@H]2C[C@@]3(C)[C@@H](CC[C@@]3(O)CO)[C@@H]3CCC4=CC(=O)CCC4=C32)cc1 [Example 20, 4-[17β-Hydroxy-17α-hydroxymethyl-3-oxoestra-4,9-dien-11β-yl]benzaldehyde-1-(E)-[O-(ethylamino)-carbonyl]oxime] | 12% | – | a) 4% | b) 7% | 5% | – | –
7 | CC#C[C@]1(O)CC[C@H]2[C@@H]3CCC4=CC(=O)CCC4=C3[C@@H](c3ccc(N(C)C)cc3)C[C@@]21C [RU 38 486, reference compound] | – | 2/5 | – | – | – | 0/5 | 5/5
